In patent publication US5157019A, “Serine protease inhibitors” (Monsanto Company, priority 1991, dated 1992):
Bridge positions count the residues as written; N and C are the ends. Ends that are not written are not given here.

Key:
Type in all cases: biochemical
HUMAN SPUTUM ELASTASE = target: T1, HUMAN SPUTUM ELASTASE (Homo sapiens, UniProt P08246); test: Elastase assay (MeO-Suc-Ala-Pro-Val-pNA); conditions: 200 μM peptide
T1 construct: HUMAN SPUTUM ELASTASE; purchased Elastin Products Company SE563; host or cells: human sputum (from the product name)
T1 sequence (P08246 30-267): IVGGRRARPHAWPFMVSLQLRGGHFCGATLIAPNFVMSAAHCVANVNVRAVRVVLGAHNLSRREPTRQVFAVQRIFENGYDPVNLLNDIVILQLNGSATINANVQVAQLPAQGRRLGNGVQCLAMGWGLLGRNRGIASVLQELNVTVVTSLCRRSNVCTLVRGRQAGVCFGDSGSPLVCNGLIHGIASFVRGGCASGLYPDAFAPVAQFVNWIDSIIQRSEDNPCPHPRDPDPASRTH
Experimental: Enzyme used is "HUMAN SPUTUM ELASTASE®" which is an enzyme which is the target protease for α1 antitrypsin from Elastin Products Company, Catalog No. SE563, lot 85071, 875 units/mg as determined by supplier with N-Suc-Ala-Ala-Ala-pNA; prepared at 0.2 mg/mL in 0.1M Tris·HCl, pH 8.8 at 37 degrees C. An amount of enzyme is used to give approximately 0.1 change in Absorbance/min; which in this assay was 1 μg.
The substrate is MeO-Suc-Ala-Pro-Val-pNA, Sigma Catalog No. M-4765. About 50 mg of the substrate is dissolved in 1 ml of 1-methyl-2-pyrrolidinone and diluted to 33 mls. with 0.1M Tris-HCl, pH 7.5, containing 0.5M NaCl, and 0.01 wt % sodium azide.
Peptide solutions are prepared at 500 μM, using 1.5% of the final volume of DMSO first and diluting with distilled water (DW) or 0.1M Tris.HCl, pH 8.8 at 37 degrees C. [formula]

Cathepsin G = target: T2, Cathepsin G (Homo sapiens, UniProt P08311); test: Cathepsin G assay (Suc-Ala-Ala-Pro-Phe-pNA, 410 nm); conditions: 200 μM peptide (head of Table IX)
T2 construct: purchased Elastin Products Company (EPC) SG-45
T2 sequence (P08311 21-255): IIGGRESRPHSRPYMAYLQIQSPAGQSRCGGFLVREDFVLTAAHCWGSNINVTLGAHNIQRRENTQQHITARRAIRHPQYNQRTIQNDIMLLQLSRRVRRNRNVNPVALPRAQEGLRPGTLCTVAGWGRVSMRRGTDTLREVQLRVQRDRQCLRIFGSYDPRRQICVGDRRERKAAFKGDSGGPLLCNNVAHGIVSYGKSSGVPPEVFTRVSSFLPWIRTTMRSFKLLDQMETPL
Experimental: Reference: Elastin Products Company (EPC) technical data sheet, cathepsin G, No. SG-45.
Method: Spectrophotometric rate determination
A) Buffer; 0.1M Tris, pH 7.5 at 25° C.
B) Substrate; 60 mM Suc-Ala-Ala-Pro-Phe-pNA obtained from Sigma Chemical Company. Solution prepared by dissolving 50 mg substrate in 1.3 ml of 1-methyl-2-pyrrolidinone. Stored at 5° C.
C) Peptide Inhibitors; 200 μM HCl salt. Depending on peptide solubility, dissolved in buffer or DMSO and then buffer added for a final concentration of 10% DMSO.
D) Enzyme; Cathepsin G, EPC SG-45, lot 85117 used for all assays, 0.0077 mg protein per mg solid determined by supplier by Bradford method. Enzyme was dissolved in buffer at a concentration of approx. 5 mg/ml solid. Solution stored on ice, used within 2 hours.
Pipetted the following into semi-micro quartz cuvettes: 0.3 ml buffer, 0.15 ml peptide solution and 0.5 ml of substrate solution. Equilibrate for 5 min. at 25° C., then add 0.05 ml of enzyme solution and monitor the release of pNA spectrophotometrically at 410 nm for at least 3 minutes. The controls contain either 0.45 ml of buffer or 20% DMSO in buffer (for a final concentration of 10% DMSO).
The rate (O.D./min) is obtained as an average over 3 minutes. [formula]

Thrombin = Thrombin (Homo sapiens, UniProt P00734); test: Coagulation inhibition assay, thrombin (fibrinogen clotting end point); conditions: 40 μM peptide
Experimental: Inhibitory activity of subject peptides toward thrombin and Factor Xa were done in the following manner. Mix 100 μL Thrombin (3.125 units/ml, 1.125 μg/ml) in TAB with […] Peptide in TAB and incubate for 1 minute at 37° C. Add 50 μL Fibrinogen (2 mg/ml)and measure clotting end point (in seconds) in a Fibrometer (BBL) TAB=Thrombin Assay Buffer: 0.15M NaCl, 6.6 gm/L PEG-6000, 0.01M Imidazole, 0.01 CaCl2, pH 7.4

tPA = target: T3, tPA (Homo sapiens, UniProt P00750); test: Tissue plasminogen activator (tPA) assay (S2288); conditions: for inhibition at 10 µM: 10 μM peptide
T3 construct: Enzyme tPA, 2 chain activity standard; purchased American Diagnostica, Inc. 116
Experimental: Substrate H-D-Ile-Pro-Arg-pNA·2HCl (S2288, Kabi), 10 mM in deionized water; may be frozen for future use.
Buffer 50 mM Tris·HCl, pH 7.4 containing 0.01% Tween 80.
Inhibitor […] in deionized water.
Enzyme tPA, 2 chain activity standard (Catalog #116, American Diagnostica, Inc.); stock solution=10 μL of original solution per mL in buffer.
Mix 200 μL of buffer, 200 μL of deionized water (control) or inhibitor solution and 40 μL of substrate solution. Incubate for 2 min. at 37° C., add 40 μL of enzyme, mix, and measure rate spectrophotometrically at 405 nm for about 5 min. Inhibition (%) is calculated in the same manner as in previous assays.

C1s = target: T4, C1s (Homo sapiens, UniProt P09871); test: C1s assay by inhibition of fluid phase C4 activation; conditions: Table X; μM concentration at which protease was inhibited 50%; read-out: IC50 C1S
T4 construct: prepared from pooled human plasma; from tissue; host or cells: pooled human plasma
T4 sequence (P09871 16-688): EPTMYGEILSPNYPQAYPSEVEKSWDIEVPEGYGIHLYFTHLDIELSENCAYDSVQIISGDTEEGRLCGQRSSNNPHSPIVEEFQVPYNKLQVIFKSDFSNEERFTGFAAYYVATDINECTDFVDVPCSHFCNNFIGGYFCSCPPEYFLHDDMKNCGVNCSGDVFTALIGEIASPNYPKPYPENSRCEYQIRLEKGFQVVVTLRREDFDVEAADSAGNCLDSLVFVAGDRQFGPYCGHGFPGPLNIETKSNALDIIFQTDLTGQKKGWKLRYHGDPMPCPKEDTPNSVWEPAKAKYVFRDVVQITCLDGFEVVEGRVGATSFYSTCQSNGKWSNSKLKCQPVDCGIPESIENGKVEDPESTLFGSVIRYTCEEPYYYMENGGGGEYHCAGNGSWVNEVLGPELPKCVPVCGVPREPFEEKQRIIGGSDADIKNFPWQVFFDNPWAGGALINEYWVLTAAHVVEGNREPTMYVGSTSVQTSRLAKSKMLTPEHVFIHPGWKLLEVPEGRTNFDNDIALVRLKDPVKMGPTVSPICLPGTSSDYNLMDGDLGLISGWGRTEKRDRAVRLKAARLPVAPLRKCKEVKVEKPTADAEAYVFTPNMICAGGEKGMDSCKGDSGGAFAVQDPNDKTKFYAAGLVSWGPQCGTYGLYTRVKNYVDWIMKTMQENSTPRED
Experimental: (§1) Highly purified C3, C4, Factor D, Factor B, and C1s were prepared from pooled human plasma. Factors B and C4 were radiolabeled by periodate oxidation of sialic acid residues, followed by reduction with tritiated sodium borohydride. In a representative experiment, a solution of 1.2 mg of factor B in 1.8 ml of PBS was treated with 70 μl of 0.1M NaIO4. After 10 min incubation on ice, excess reagent was removed by filtration over "SEPHADEX®" which is a matrix for gel chromatography (1.0 cm×20 cm). To the protein pool was added 60 μl of NaB[^3 H]4 solution and incubated for 30 min on ice. Labeled protein was separated from excess reagent by desalting or dialysis. Human C4 was radiolabeled in the same manner. Radiolabeled proteins were stored at -70° C. in PBS. The specific radioactivity of ^3 H factor B was about 10,000 CPM/μg and that of ^3 H-C4 was 5,000 CPM/μg.
The cleavage of C4 was studied by incubating 10 μg of tritiated C4 with 3-5 ng of C1s at 37° C. for 30 min in 100 μl of PBS (pH 7.10) containing different concentrations of inhibitor. The reaction was stopped by the addition of 2-mercaptoethanol. The extent of cleavage was analyzed by SDS-polyacrylamide gel electrophoresis. The stained bands corresponding to C4α and C4α' were cut out and sliced. The radioactivity of the fragments was measured by liquid scintillation counting. The percent cleavage of the reaction was calculated as follows: [formula]
(§2) Electrophoresis was carried out under reducing conditions in the Laemmli system using slab gel of 8% polyacrylamide. The gels were stained and destained (Fairbanks et al. Biochemistry (1971) 10:2606).
(§3) The percent inhibition of the reaction was calculated according to the following relationship: [formula]
(§4) A: % cleavage without inhibitor
(§5) B: % cleavage with inhibitor
(§6) The concentration inducing 50% inhibition was obtained by plotting the percent inhibition on a probability graph (National Blank Book Co., No. 12-083) on the ordinate and the log of the inhibitor concentration on the abscissa. From this graph, a 50% inhibition concentration IC50 was obtained and this value was employed to express the activity.

Factor D = target: T5, Factor D (Homo sapiens, UniProt P00746); test: Factor D assay by inhibition of fluid phase Factor B activation; conditions: Table X; μM concentration at which protease was inhibited 50%; read-out: IC50 D
T5 construct: prepared from pooled human plasma; from tissue; host or cells: pooled human plasma
Experimental: as §1
The effect of the peptides on Factor D-dependent cleavage of factor B was studied by incubating 3.5 μg of Factor B, 1.5 μg of C3(H2 O) and 0.2 μl of Factor D at 37° C. for 60 min in Mg-PBS containing different concentrations of inhibitor. Uncleaved Factor B and its fragments, Ba and Bb, were first separated by SDS-PAGE and analyzed as described above. The percent cleavage of the reaction was calculated as follows: [formula]
B=radioactivity (CPM) of uncleaved factor B
Bb=radioactivity (CPM) of fragment Bb
Ba=radioactivity (CPM) of fragment Ba
as §2, §3, §4, §5, §6

T3 sequence (P00750 311-562 limits assumed): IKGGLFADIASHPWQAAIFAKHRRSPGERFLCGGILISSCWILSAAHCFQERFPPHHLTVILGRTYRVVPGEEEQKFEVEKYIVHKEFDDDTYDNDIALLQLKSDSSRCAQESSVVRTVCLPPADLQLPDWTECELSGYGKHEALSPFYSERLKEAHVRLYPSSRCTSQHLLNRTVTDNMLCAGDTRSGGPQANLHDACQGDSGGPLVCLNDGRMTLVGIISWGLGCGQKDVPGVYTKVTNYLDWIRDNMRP
T3 sequence (P00750 36-310 partner limits assumed): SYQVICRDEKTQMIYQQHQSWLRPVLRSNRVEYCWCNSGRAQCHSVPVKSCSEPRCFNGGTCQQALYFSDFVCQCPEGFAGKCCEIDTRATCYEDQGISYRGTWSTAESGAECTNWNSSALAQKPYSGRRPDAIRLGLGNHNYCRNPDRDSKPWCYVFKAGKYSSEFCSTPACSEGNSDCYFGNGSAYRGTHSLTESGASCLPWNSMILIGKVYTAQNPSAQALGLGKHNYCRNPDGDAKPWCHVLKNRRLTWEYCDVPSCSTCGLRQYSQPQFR
T5 sequence (P00746 26-253): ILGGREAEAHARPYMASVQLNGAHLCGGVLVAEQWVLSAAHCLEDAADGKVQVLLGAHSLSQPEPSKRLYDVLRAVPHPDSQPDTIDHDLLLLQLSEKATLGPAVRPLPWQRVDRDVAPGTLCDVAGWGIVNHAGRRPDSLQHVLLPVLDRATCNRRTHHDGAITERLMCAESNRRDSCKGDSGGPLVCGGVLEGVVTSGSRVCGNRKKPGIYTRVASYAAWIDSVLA

Sequence	Elastase Inhibition (HUMAN SPUTUM ELASTASE) [%]	Cathepsin G Inhibition (Cathepsin G) [%]	further results
AGRSLNPNRTIVRFNRPFLLII [Peptide 11]	–	–	inhibition at 200 µM (HUMAN SPUTUM ELASTASE): 15%; inhibition at 200 µM (Cathepsin G): 40%; inhibition at 40 µM (Thrombin): 81%
FLEAIPMSIPPEVKFNKPFVFLI [Peptide 4]	–	–	inhibition at 200 µM (HUMAN SPUTUM ELASTASE): 70%; inhibition at 200 µM (Cathepsin G): 14%
FLEAIPMSIPPTFKANRPFLVFI [Peptide 8]	77	44	Thrombin inhibition (Thrombin): 30%
FLEAIPMSIRTIVRFNRPFLLII [Peptide 12]	0	51	–
IAGRSLNPNPPEVKFKNPFVFLI [Peptide 5]	0	0	–
IAGRSLNPNRVTFKANRPFCVFIREVPLNTIIFLGCVANPAVK (disulfide 20-36) [Peptide 45]	–	–	inhibition at 20 µM (tPA; 20 μM peptide): 69%
IDGRIVEGSRVTFKANRPFLVFI [Peptide 18]	–	–	IC50 (C1s): 40 µM; IC50 (Factor D): 43 µM
LQRALEILRVTFKANRPFLVFI [Peptide 14]	–	–	IC50 (C1s): 9 µM; IC50 (Factor D): 8 µM
PFLVFILPNIFLGRVAN [Peptide 43]	–	–	inhibition at 10 µM (tPA): 7%
RPFLVFILPGIFLGRVANP [Peptide 38]	–	–	inhibition at 10 µM (tPA): 59%
RPFLVFILPNIFLGRVAN [Peptide 42]	–	–	inhibition at 10 µM (tPA): 44%
TLLSALVETPPEVKFKNPFVFLI [Peptide 6]	17	0	–
TLLSALVETRTIVRFNRPFLLII [Peptide 10]	0	65	–
TLLSALVETRVTFKANRPFLVFI [Peptide 9]	–	41	Thrombin inhibition (Thrombin): 32%

Further lines, with some results ahead:

Elastase Inhibition (HUMAN SPUTUM ELASTASE) [%]	Cathepsin G Inhibition (Cathepsin G) [%]	Sequence	further results
26	0	FLEAIPMSIPPEVKFNKPFVFLLIEQNTKSPLFLGKVVNPTQK [Peptide 24]	–
100	–	FLEAIPMSIPPIVRFNRPFLLII [Peptide 19]	–
0	0	FLEAIPMSIPPIVRFNRPFLLIIVPTDTQNIFFLSKVTNPSKPR [Peptide 32]	–
0	16	FLEAIPMSIPPRVTFKANRPFLVFIREVPLNTIIFLGRVANP [Peptide 28]	–
0	54	IAGRSLNPNIVRFNRPFLLIIVPTDTQNIFFLSKVTNPSKPR [Peptide 31]	–
0	35	IAGRSLNPNRVTLRYNKPFILVLFETPGNSLVFLGRISNPATK [Peptide 33]	–
0	35	IAGRSLNPNRVTVKFNKPFVFLLIEQNTKSPLFLGKVVNPTQK [Peptide 25]	–
–	0	TLLSALVETRTIVKFNKPFVFLLIEQNTKSPLFLGKVVNPTQK [Peptide 26]	–
–	38	TLLSALVETRTIVRFNRPFLLIIVPTDTQNIFFLSKVTNPSKPR [Peptide 30]	–
